In patent US20090176817A1, “Method of Treatment of Diarrhea-Predominant Irritable Bowel Syndrome in a Subject” (priority 2005, published 2009):

Test system: diarrhea-predominant IBS subjects
Assay: Study S241.3.011: weekly diary questions on adequate relief
Format: in vivo, human
Conditions: for Overall responder rate, adequate relief of IBS symptoms / Overall responder rate, adequate relief of abdominal pain/discomfort / Overall responder rate, adequate relief of abnormal bowel habits: observed case
Protocol: Study S241.3.011 was a Phase III, double-blind, placebo-controlled, randomized, multinational study to investigate the safety and efficacy of 2 mg TID of cilansetron for a period of 12 weeks followed by a rerandomized, placebo-controlled four-week treatment period, in diarrhea-predominant IBS subjects. The study was conducted in six countries including the US. A total of 2115 subjects consented to participate, and 770 subjects were randomized. A total of 746 subjects were analyzed for efficacy and 755 subjects were analyzed for safety. Diagnosis and main criteria for inclusion were IBS subjects satisfying the Rome I criteria (1992); the diarrhea predominant sub-population of the Rome II criteria; and a minimum abdominal pain/discomfort, stool frequency and consistency determined during the run-in period. Subjects were treated with cilansetron 2 mg tablets given orally TID or matching placebo tablets given orally TID for 12 weeks followed by a rerandomized, placebo-controlled four-week treatment period.
The primary efficacy parameter was the number of months that a subject was a responder for IBS symptoms (abdominal pain, abdominal discomfort, abnormal bowel habits) over the 12-week treatment period. A responder for a month (monthly responder) was defined as a subject who answered the weekly question with “yes” at least twice for that month. The two main secondary efficacy parameters were the monthly responder rates based on the “adequate relief” questions regarding abdominal pain/discomfort and abnormal bowel habits during the 12-week treatment period. The overall response rate and responder rate for the weekly diary questions on adequate relief at each month and all months, the adequate relief rate, the number of subjects with adequate relief by week, daily diary questions, IBS-QOL scores, and the interruption of activities were also assessed. Safety was evaluated by physical examination, ECG, vital signs, laboratory evaluations, concomitant medications, and AEs.
Subjects who were initially randomized to the cilansetron 2 mg TID group and rerandomized to placebo, will be referred to as the C/P treatment group; subjects initially randomized to the placebo group and rerandomized to placebo will be referred to as the P/P treatment group; the P/C and C/C treatment group nomenclature follow the same principle. Of the 591 subjects who completed the three-month treatment period, 576 subjects were rerandomized and thus divided into the following treatment groups: 150 subjects in the C/C treatment group, 140 subjects in the C/P treatment group, 136 subjects in the P/C treatment group, and 150 subjects in the P/P treatment group. Of the 576 subjects rerandomized, a higher percentage of subjects in the C/C treatment group (99%) completed the study compared with the C/P (95%), P/C (93%), and the P/P (95%) treatment groups.
Studies S24 1.3.OO6, S24 1.3.0 1 1, and S24 1.3.009 used the following efficacy measurements: • The subjects answered the following three questions with “yes” or “no” using a phone diary at the end of each week: • a) During the last week, did you experience adequate relief of your IBS symptoms, such as abdominal pain, abdominal discomfort, abnormal bowel habits? • b) During the last week, did you experience adequate relief of your abdominal pain and/or discomfort? • c) During the last week, did you experience adequate relief of your abnormal bowel habits? • The subjects rated the following symptoms using the phone diary at the end of each day: • abdominal pain/discomfort (five-point scale); • stool consistency (seven-point Bristol Stool Scale); • stool frequency (number of bowel movements each day); • urgency (five-point scale); • straining (yes or no); • feeling of incomplete defecation (yes or no); • bloating or feeling of abdominal distension (five-point scale). • In Studies S241 A006 and S241.3.009, subjects completed the IBS-QOL Survey at Baseline (Day 1) and at the end of treatment. […]

[1] = Female subjects, three-month treatment period, monthly LOCF, ITT, 2 mg TID
[2] = Female subjects, three-month treatment period, ITT, 2 mg TID
[3] = Male subjects, three-month treatment period, monthly LOCF, ITT, 2 mg TID
[4] = Male subjects, three-month treatment period, ITT, 2 mg TID
[5] = RR Group C/C (cilansetron 2 mg TID, rerandomized to cilansetron)
[6] = RR Group C/P (cilansetron 2 mg TID, rerandomized to placebo)

Compound: Cc1nccn1C[C@H]1CCc2c(c3cccc4c3n2CCC4)C1=O [Cilansetron, (R)-(−)-4,5,6,8,9,10-hexahydro-10-[(2-methyl-1H-imidazol-1-yl)methyl]-11H-pyrido-[3,2,1-jk]-carbazol-11-one]
- Number of months a subject was a responder: Three months (Abnormal bowel habits) [1]: 101 (39) n (%)
- Number of months a subject was a responder: Three months (IBS symptoms) [1]: 96 (37) n (%)
- Number of months a subject was a responder: Two months (Abdominal pain/discomfort) [1]: 57 (22) n (%)
- Number of months a subject was a responder: Two months (Abnormal bowel habits) [1]: 48 (18) n (%)
- Number of months a subject was a responder: Two months (IBS symptoms) [1]: 52 (20) n (%)
- Number of months a subject was a responder: Zero months (Abdominal pain/discomfort) [1]: 74 (28) n (%)
- Number of months a subject was a responder: Zero months (Abnormal bowel habits) [1]: 79 (30) n (%)
- Number of months a subject was a responder: Zero months (IBS symptoms) [1]: 79 (30) n (%)
- Overall responder rate, adequate relief of IBS symptoms [2]: 138 (53) n (%)
- Overall responder rate, adequate relief of abdominal pain/discomfort [2]: 151 (58) n (%)
- Overall responder rate, adequate relief of abnormal bowel habits [2]: 140 (53) n (%)
- Number of months a subject was a responder: One month (Abdominal pain/discomfort) [3]: 15 (13) n (%)
- Number of months a subject was a responder: One month (Abnormal bowel habits) [3]: 16 (14) n (%)
- Number of months a subject was a responder: One month (IBS symptoms) [3]: 19 (17) n (%)
- Number of months a subject was a responder: Three months (Abdominal pain/discomfort) [3]: 58 (50) n (%)
- Number of months a subject was a responder: Three months (Abnormal bowel habits) [3]: 48 (42) n (%)
- Number of months a subject was a responder: Three months (IBS symptoms) [3]: 52 (45) n (%)
- Number of months a subject was a responder: Two months (Abdominal pain/discomfort) [3]: 15 (13) n (%)
- Number of months a subject was a responder: Two months (Abnormal bowel habits) [3]: 18 (16) n (%)
- Number of months a subject was a responder: Two months (IBS symptoms) [3]: 18 (16) n (%)
- Number of months a subject was a responder: Zero months (Abdominal pain/discomfort) [3]: 27 (23) n (%)
- Number of months a subject was a responder: Zero months (Abnormal bowel habits) [3]: 33 (29) n (%)
- Number of months a subject was a responder: Zero months (IBS symptoms) [3]: 26 (23) n (%)
- Overall responder rate, adequate relief of IBS symptoms [4]: 68 (59) n (%)
- Overall responder rate, adequate relief of abdominal pain/discomfort [4]: 70 (61) n (%)
- Overall responder rate, adequate relief of abnormal bowel habits [4]: 63 (55) n (%)
- Responder rate, abdominal pain/discomfort (Peru): 69%
- Responder rate, abnormal bowel habits (Peru): 75%
- Δ Month 4 vs Month 3, responder rate, Adequate Relief of Abdominal Pain/Discomfort (RR Group C/C): 0%
- Δ Month 4 vs Month 3, responder rate, Adequate Relief of Abnormal Bowel Habits (RR Group C/C): +2%
- Δ Month 4 vs Month 3, responder rate, Adequate Relief of IBS Symptoms (RR Group C/C): +3%
- Monthly responder rate, Adequate Relief of Abdominal Pain/Discomfort, Month 3 [5]: 70%
- Monthly responder rate, Adequate Relief of Abdominal Pain/Discomfort, Month 4 [5]: 70%
- Monthly responder rate, Adequate Relief of Abnormal Bowel Habits, Month 3 [5]: 68%
- Monthly responder rate, Adequate Relief of Abnormal Bowel Habits, Month 4 [5]: 70%
- Monthly responder rate, Adequate Relief of IBS Symptoms, Month 3 [5]: 66%
- Monthly responder rate, Adequate Relief of IBS Symptoms, Month 4 [5]: 69%
- Δ Month 4 vs Month 3, responder rate, Adequate Relief of Abdominal Pain/Discomfort (RR Group C/P): −16%
- Δ Month 4 vs Month 3, responder rate, Adequate Relief of Abnormal Bowel Habits (RR Group C/P): −18%
- Δ Month 4 vs Month 3, responder rate, Adequate Relief of IBS Symptoms (RR Group C/P): −22%
- Monthly responder rate, Adequate Relief of Abdominal Pain/Discomfort, Month 3 [6]: 66%
- Monthly responder rate, Adequate Relief of Abdominal Pain/Discomfort, Month 4 [6]: 50%
- Monthly responder rate, Adequate Relief of Abnormal Bowel Habits, Month 3 [6]: 60%
- Monthly responder rate, Adequate Relief of Abnormal Bowel Habits, Month 4 [6]: 42%
- Monthly responder rate, Adequate Relief of IBS Symptoms, Month 3 [6]: 61%
- Monthly responder rate, Adequate Relief of IBS Symptoms, Month 4 [6]: 39%
- Overall responder rate, IBS symptoms (entire four months, C/C group): 66%
- Overall responder rate, abdominal pain/discomfort (entire four months, C/C group): 70%
- Overall responder rate, abnormal bowel habits (entire four months, C/C group): 69%
- Overall responder rate, IBS symptoms (females): 53%
- Overall responder rate, abdominal pain/discomfort (females): 58%
- Overall responder rate, abnormal bowel habits (females): 53%
- Overall responder rate, IBS symptoms (males): 59%
- Overall responder rate, abdominal pain/discomfort (males): 61%
- Overall responder rate, abnormal bowel habits (males): 55%
- Overall responder rate, IBS symptoms (non-Caucasians): 66%
- Overall responder rate, abdominal pain/discomfort (non-Caucasians): 66%
- Overall responder rate, abnormal bowel habits (non-Caucasians): 70%
